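A five-concentration, 48-hour dose response in 96-well plates underlies each endpoint, interpolated linearly between surrounding concentrations. GI50 marks 50% less growth.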 The source made the active and inactive calls. Rule as the data show it: active = GI50 up to about 1.1 µM and inactive = higher.
Tests used:
Assay in all cases: DTP human tumour cell line panel, 48 h
SF-295 = tested on: SF-295
U-251 = tested on: U-251
EKVX = tested on: EKVX
UO-31 = tested on: UO-31
K562 = tested on: K562
SR = tested on: SR
SN12C = tested on: SN12C
MDA-MB-231 = tested on: MDA-MB-231
A549 = tested on: A549
SNB-75 = tested on: SNB-75
IGROV-1 = tested on: IGROV-1
HOP-92 = tested on: HOP-92
DMS-273 = tested on: DMS-273
CAKI-1 = tested on: CAKI-1
XF498 = tested on: XF498
SK-MEL-5 = tested on: SK-MEL-5
OVCAR-8 = tested on: OVCAR-8
HCT-116 = tested on: HCT-116
DU-145 = tested on: DU-145
SK-MEL-2 = tested on: SK-MEL-2
HOP-18 = tested on: HOP-18
OVCAR-3 = tested on: OVCAR-3
SK-MEL-28 = tested on: SK-MEL-28
RPMI-8226 = tested on: RPMI-8226
LXFL 529 = tested on: LXFL 529
COLO 205 = tested on: COLO 205
HOP-62 = tested on: HOP-62
ACHN = tested on: ACHN
HCC 2998 = tested on: HCC 2998
CCRF-CEM = tested on: CCRF-CEM
NCI-H460 = tested on: NCI-H460
SF-539 = tested on: SF-539
KM12 = tested on: KM12
SNB-78 = tested on: SNB-78
UACC-257 = tested on: UACC-257
NCI-H522 = tested on: NCI-H522
OVCAR-4 = tested on: OVCAR-4
KM-20L2 = tested on: KM-20L2
UACC-62 = tested on: UACC-62
NCI-H226 = tested on: NCI-H226
TK-10 = tested on: TK-10
HT-29 = tested on: HT-29
SF-268 = tested on: SF-268
SK-OV-3 = tested on: SK-OV-3
RXF 393 = tested on: RXF 393
M19-MEL = tested on: M19-MEL
MOLT-4 = tested on: MOLT-4
LOX IMVI = tested on: LOX IMVI
786-0 = tested on: 786-0
DMS-114 = tested on: DMS-114
M14 = tested on: M14
HCT-15 = tested on: HCT-15
A498 = tested on: A498
DLD-1 = tested on: DLD-1
Malme-3M = tested on: Malme-3M
T47D = tested on: T47D
RXF 631 = tested on: RXF 631
OVCAR-5 = tested on: OVCAR-5
NCI-H23 = tested on: NCI-H23
HL-60 = tested on: HL-60
SNB-19 = tested on: SNB-19
Hs-578T = tested on: Hs-578T
SW-620 = tested on: SW-620
PC-3 = tested on: PC-3
MDA-MB-435 = tested on: MDA-MB-435
BT-549 = tested on: BT-549
MDA-N = tested on: MDA-N
MCF7 = tested on: MCF7

With `O=C1c2ccccc2C(=O)c2sc(Nc3ccc(Cl)c(Cl)c3)nc21` the GI50 (SF-295) was 15.2 µM (inactive), the GI50 (U-251) was 2.43 µM (inactive) and the GI50 (EKVX) was 14.3 µM (inactive). The GI50 (UO-31) was 2.12 µM (inactive), the GI50 (K562) was 3.21 µM (inactive) and the GI50 (SR) was 2.52 µM (inactive). For the same molecule, the GI50 (SN12C) was 1.83 µM (inactive), the GI50 (MDA-MB-231) was 2.17 µM (inactive) and the GI50 (A549) was 23.5 µM (inactive). For the same molecule, the GI50 (SNB-75) was 8.05 µM (inactive), the GI50 (IGROV-1) was 3.82 µM (inactive) and the GI50 (HOP-92) was 13.3 µM (inactive). The GI50 (DMS-273) was 5.3 µM (inactive), the GI50 (CAKI-1) was 3.07 µM (inactive) and the GI50 (XF498) was 2.54 µM (inactive). For the same molecule, the GI50 (SK-MEL-5) was 2.32 µM (inactive), the GI50 (OVCAR-8) was 3.7 µM (inactive) and the GI50 (HCT-116) was 3 µM (inactive). The GI50 (DU-145) was 18.8 µM (inactive), the GI50 (SK-MEL-2) was 8.26 µM (inactive) and the GI50 (HOP-18) was 5.06 µM (inactive). The GI50 (OVCAR-3) was 2.49 µM (inactive), the GI50 (SK-MEL-28) was 7.35 µM (inactive) and the GI50 (RPMI-8226) was 2.02 µM (inactive). For the same molecule, the GI50 (LXFL 529) was 1.82 µM (inactive), the GI50 (COLO 205) was 8 µM (inactive) and the GI50 (HOP-62) was 7.38 µM (inactive). The GI50 (ACHN) was 1.75 µM (inactive), the GI50 (HCC 2998) was 15.3 µM (inactive) and the GI50 (CCRF-CEM) was 1.85 µM (inactive). For the same molecule, the GI50 (NCI-H460) was 12.5 µM (inactive), the GI50 (SF-539) was 4.38 µM (inactive) and the GI50 (KM12) was 7.83 µM (inactive). The GI50 (SNB-78) was 2.52 µM (inactive), the GI50 (UACC-257) was 4.01 µM (inactive) and the GI50 (NCI-H522) was 2.07 µM (inactive). The GI50 (OVCAR-4) was 2.21 µM (inactive), the GI50 (KM-20L2) was 19.5 µM (inactive) and the GI50 (UACC-62) was 2.59 µM (inactive). The GI50 (NCI-H226) was 1.48 µM (inactive), the GI50 (TK-10) was 11.1 µM (inactive) and the GI50 (HT-29) was 19.7 µM (inactive). For the same molecule, the GI50 (SF-268) was 4.97 µM (inactive), the GI50 (SK-OV-3) was 18 µM (inactive) and the GI50 (RXF 393) was 7.4 µM (inactive). The GI50 (M19-MEL) was 1.12 µM (inactive), the GI50 (MOLT-4) was 1.02 µM (active) and the GI50 (LOX IMVI) was 2.17 µM (inactive). For the same molecule, the GI50 (786-0) was 1.82 µM (inactive), the GI50 (DMS-114) was 1.67 µM (inactive) and the GI50 (M14) was 3.22 µM (inactive). For the same molecule, the GI50 (HCT-15) was 2.26 µM, the GI50 (A498) was 16.6 µM (inactive) and the GI50 (DLD-1) was 2.15 µM (inactive). For the same molecule, the GI50 (Malme-3M) was 4.16 µM (inactive), the GI50 (T47D) was 4.03 µM (inactive) and the GI50 (RXF 631) was 7.98 µM (inactive). The GI50 (OVCAR-5) was 2.9 µM (inactive), the GI50 (NCI-H23) was 2.31 µM (inactive) and the GI50 (HL-60) was 0.256 µM (active). The GI50 (SNB-19) was 6.04 µM (inactive), the GI50 (Hs-578T) was 6.92 µM (inactive) and the GI50 (SW-620) was 1.61 µM (inactive).

With `CC(=O)OC1CC[C@@]2(C)C(CC[C@]3(C)C2CC=C2[C@@H]4CC(C)(C)CCC4(C)CCC23C)[C@@]1(C)C(=O)O` (stereo partly specified) the GI50 (SF-295) was 17.9 µM (inactive), the GI50 (U-251) was 10.3 µM (inactive) and the GI50 (EKVX) was 16.1 µM (inactive). For the same molecule, the GI50 (UO-31) was 16 µM (inactive), the GI50 (K562) was 19.2 µM (inactive) and the GI50 (SR) was 22.8 µM (inactive). The GI50 (PC-3) was 6.61 µM (inactive), the GI50 (SN12C) was 16.4 µM (inactive) and the GI50 (MDA-MB-231) was 20.9 µM (inactive). For the same molecule, the GI50 (A549) was 7.41 µM (inactive), the GI50 (SNB-75) was 23 µM (inactive) and the GI50 (IGROV-1) was 16.4 µM (inactive). For the same molecule, the GI50 (HOP-92) was 20.4 µM (inactive), the GI50 (DMS-273) was 16.4 µM (inactive) and the GI50 (CAKI-1) was 18.5 µM (inactive). The GI50 (XF498) was 20.5 µM (inactive), the GI50 (SK-MEL-5) was 16.9 µM (inactive) and the GI50 (MDA-MB-435) was 15.2 µM (inactive). The GI50 (OVCAR-8) was 14 µM (inactive), the GI50 (HCT-116) was 13.2 µM (inactive) and the GI50 (DU-145) was 16.6 µM (inactive). The GI50 (SK-MEL-2) was 15.7 µM (inactive), the GI50 (HOP-18) was 21.9 µM (inactive) and the GI50 (OVCAR-3) was 15.1 µM (inactive). The GI50 (SK-MEL-28) was 21.2 µM (inactive), the GI50 (BT-549) was 29.9 µM (inactive) and the GI50 (RPMI-8226) was 10.8 µM (inactive). The GI50 (LXFL 529) was 13.3 µM (inactive), the GI50 (COLO 205) was 19.1 µM (inactive) and the GI50 (HOP-62) was 19.9 µM (inactive). For the same molecule, the GI50 (ACHN) was 12.1 µM (inactive), the GI50 (HCC 2998) was 14.5 µM (inactive) and the GI50 (CCRF-CEM) was 23.4 µM (inactive). The GI50 (NCI-H460) was 10.7 µM (inactive), the GI50 (SF-539) was 19.9 µM (inactive) and the GI50 (KM12) was 12 µM (inactive). For the same molecule, the GI50 (SNB-78) was 20.5 µM (inactive), the GI50 (UACC-257) was 19.9 µM (inactive) and the GI50 (NCI-H522) was 5.77 µM (inactive). For the same molecule, the GI50 (OVCAR-4) was 14.9 µM (inactive), the GI50 (KM-20L2) was 13.9 µM (inactive) and the GI50 (UACC-62) was 15.4 µM (inactive). The GI50 (NCI-H226) was 22 µM (inactive), the GI50 (TK-10) was 22.3 µM (inactive) and the GI50 (HT-29) was 15.9 µM (inactive). For the same molecule, the GI50 (SF-268) was 18.2 µM (inactive), the GI50 (SK-OV-3) was 17.7 µM (inactive) and the GI50 (RXF 393) was 16.6 µM (inactive). For the same molecule, the GI50 (M19-MEL) was 22.2 µM (inactive), the GI50 (MOLT-4) was 17.6 µM (inactive) and the GI50 (LOX IMVI) was 13.8 µM (inactive). For the same molecule, the GI50 (MDA-N) was 21.9 µM (inactive), the GI50 (786-0) was 17.6 µM (inactive) and the GI50 (DMS-114) was 16.4 µM (inactive). For the same molecule, the GI50 (M14) was 19.9 µM (inactive), the GI50 (HCT-15) was 7.93 µM and the GI50 (A498) was 19.2 µM (inactive). The GI50 (DLD-1) was 10.1 µM (inactive), the GI50 (Malme-3M) was 21.4 µM (inactive) and the GI50 (MCF7) was 14.9 µM (inactive). The GI50 (T47D) was 15.4 µM (inactive), the GI50 (RXF 631) was 12.9 µM (inactive) and the GI50 (OVCAR-5) was 22.7 µM (inactive). The GI50 (NCI-H23) was 11.4 µM (inactive), the GI50 (HL-60) was 31.3 µM (inactive) and the GI50 (SNB-19) was 18.9 µM (inactive). The GI50 (Hs-578T) was 20.5 µM (inactive) and the GI50 (SW-620) was 13.5 µM (inactive).
